Measurements from publication PMC9499324, “Glycyrrhizic Acid Derivatives Bearing Amino Acid Residues in the Carbohydrate Part as Dengue Virus E Protein Inhibitors: Synthesis and Antiviral Activity” (International Journal of Molecular Sciences, 2022).

Assays:
[1] = test system: DENV2; test: DENV2-induced cytopathic effect (CPE) reduction screening in Vero E6 cells; assay type: cell-based, Dengue virus type 2; settings: Dengue virus, Vero C1008; 10 μM compound, DENV2, Vero E6 cells, 96 h; read-out: CPE Reduction at 10 μM
Procedure: (§1) In the antiviral screening assay, each tested GL conjugate at 10 μM was used to survey the anti-DENV activity in Vero E6 cells using cytopathic effect (CPE) and infectivity reduction assays as described in our prior report. In CPE and infectivity reduction assays, Vero E6 cells were infected by DENV2 at an MOI of 0.005 and simultaneously treated 10 μM of indicated GL conjugate for 96 h, and then photographed by microscope for examining the levels of DENV2-induced CPE in infected cells treated with or without GL conjugate. Meanwhile, the cells were further performed using immunofluorescence assay (IFA) with anti-DENV NS4B antibodies (GeneTex, Inc., Hsinchu, Taiwan) and anti-rabbit IgG antibodies conjugated with AF555 (ThermoFisher, Waltham, MA, USA) plus DAPI (4′,6-diamidino-2-phenylindole) nuclear staining. Finally, the DENV-2 infectivity was measured according to the ratio of DENV NS4B-positive cells to DAPI-stained cells in the well of mock-treated or treated cells, as described in [45, 59, 60].

[2] = MTT cytotoxicity assay in Vero E6 cells; assay type: cell-based; settings: African green monkey
Procedure: Vero E6 cells and A549 cells (5 × 10^3 cells/well) were treated with the serial dilution of GL conjugates at 0, 0.1, 10, 20, and 50 μM for examining the in vitro cytotoxicity of tested compounds. After 96-h incubation at 37 °C, the cells were incubated with MTT (3-(4,5-Dimethylthiazol-2-yl)-2,5-Diphenyltetrazolium Bromide) solution for another 4 h incubation, mixed with DMSO for 15 min after the removal of media, and then measured the absorbance at 570 nm. The viability (%) of treated cells was quantified according to the reduced ability of MTT. Finally, the concentration for reducing 50% cell viability (the 50% cytotoxic concentration, CC50) was determined by regression analysis of the concentration–response survival curve.

[3] = test system: DENV2; test: DENV2 yield reduction assay (TCID50) in Vero E6 cells; assay type: cell-based, Dengue virus type 2
Procedure: Ten-fold serial dilutions of the cultured media of treated/infected cells harvested in the antiviral potency assay were applied to a monolayer of Vero E6 cells in the 96-well plates. After 96-h incubation, the number of CPE in each well of the dilution was calculated, and the indicated dilution with a 50% positivity rate of CPE in the cell culture was expressed as the […] (50%) tissue culture infectious dose (TCID50).

[4] = test system: DENV2; test: DENV2 infectivity inhibition (anti-NS4B immunofluorescence) in A549 cells; assay type: cell-based, Dengue virus type 2; settings: Dengue virus
[5] = test system: DENV2; test: DENV2 infectivity inhibition (anti-NS4B immunofluorescence) in Vero E6 cells; assay type: cell-based, Dengue virus type 2; settings: Dengue virus; for inhibition at 10 µM: Vero C1008, 10 μM compound, DENV2, Vero E6 cells, 96 h, read-out: Inhibition (%) at 10 μM (reduction of NS4B-positive cells)
Excerpt: as §1, with “In the antiviral screening assay, each tested GL conjugate at 10 μM was used to survey the anti-DENV activity in Vero E6 cells using cytopathic effect (CPE) and infectivity reduction assays as described in our prior report.” left out, “[…],” for “Vero E6 cells were infected by DENV2 at an MOI of 0.005 and simultaneously treated 10 μM of indicated GL conjugate for 96 h,”

[6] = Dengue virus, DENV2, Vero C1008, 96 h, read-out: IC50 on the viral yield of DENV2, Vero E6 cells, TCID50 assay, 96 h

SMILES	inhibition at 10 µM [1]	CC50 at 96 h [2]	IC50 [3, 6]	IC50 ([3]; read-out: IC50 on the viral yield of DENV2, Vero E6 cells, TCID50 assay, 96 h)	IC50 [4]	IC50 ([5]; DENV2, Vero C1008, read-out: Inhibition of DENV2 Infectivity (IC50, μM), Vero E6 cells)	inhibition at 10 µM [5]
CCOC(=O)[C@H](Cc1ccccc1)NC(=O)[C@H]1O[C@@H](O[C@H]2[C@H](OC3CC[C@@]4(C)C(CC[C@]5(C)C4C(=O)C=C4C6C[C@@](C)(C(=O)O)CC[C@]6(C)CC[C@]45C)C3(C)C)O[C@H](C(=O)N[C@@H](Cc3ccccc3)C(=O)OCC)[C@@H](O)[C@@H]2O)[C@H](O)[C@@H](O)[C@@H]1O (stereo partly drawn) [Compound 11, 3-O-{2-O-[N-(β-D-Glucopyranosyluronoyl)-L-phenylalanineethyl ester]-N-(β-D-Glucopyranosyluronoyl)-L-phenylalanineethyl ester}-(3β, 20β)-11-oxo-30-noroleane-12-ene-30-oic Acid]	75 to 100%	> 100 µM	0.2 µM	0.17 µM	1.56 ± 0.49 µM	0.17 to 0.5 µM	91.3%
COC(=O)[C@H](NC(=O)[C@H]1O[C@@H](O[C@H]2[C@H](OC3CC[C@@]4(C)C(CC[C@]5(C)C4C(=O)C=C4C6C[C@@](C)(C(=O)O)CC[C@]6(C)CC[C@]45C)C3(C)C)O[C@H](C(=O)N[C@@H](C(=O)OC)C(C)C)[C@@H](O)[C@@H]2O)[C@H](O)[C@@H](O)[C@@H]1O)C(C)C (stereo partly drawn) [Compound 3, 3-O-{2-O-[N-(β-D-Glucopyranosyluronoyl)-D-valinemethyl ester]-N-(β-D-glucopyranosyluronoyl)-D-valinemethyl ester}-(3β, 20β)-11-oxo-30-noroleane-12-ene-30-oic Acid]	75 to 100%	> 100 µM	0.5 µM	–	0.12 ± 0.028 µM	–	90.7%
